Structures are written as SMILES.

The test system of one data set is Bacillus subtilis. The data set can be described thus: Antibacterial activity against Bacillus subtilis ATCC 6633 after 24 hrs by agar-based microtiter plate assay. Type of data set: functional.
The subject of another data set is Enterococcus faecalis. The data set can be described thus: Antibacterial activity against Enterococcus faecalis ATCC 29212 after 24 hrs by agar-based microtiter plate assay. The format is functional.
The next data set relates to Staphylococcus aureus. The data set can be described thus: Antibacterial activity against Staphylococcus aureus ATCC 25923 after 24 hrs by agar-based microtiter plate assay. The format is organism-based.
A further data set has as its system Bacillus cereus. The data set can be described thus: Antibacterial activity against Bacillus cereus ATCC 11778 after 24 hrs by agar-based microtiter plate assay. Type of data set: organism-based.

Consider `COC(=O)[C@]12Oc3c(Br)c(C)c(-c4c(C)c(Br)c(O)c5c4O[C@@]4(C(=O)OC)C(=C(O)CC[C@@H]4O)C5=O)c(O)c3C(=O)C1=C(O)CC[C@@H]2O`, for which the LD99 in the data set with Bacillus subtilis turned out to be 6.3 µg/mL.
Turning to `COC(=O)[C@]12Oc3cc(C)c(-c4c(C)cc5c(c4O)C(=O)C4=C(O)CC[C@H](O)[C@@]4(C(=O)OC)O5)c(O)c3C(=O)C1=C(O)CC[C@@H]2O` [RUGULOTROSIN A], the LD99 with Enterococcus faecalis came out at 1.6 µg/mL; in the data set with Staphylococcus aureus, 200 µg/mL; in the data set with Bacillus cereus, 3.1 µg/mL.
In the case of `COC(=O)[C@]12Oc3cc(C)c(-c4c(C)cc(O)c5c4O[C@@]4(C(=O)OC)C(=C(O)CC[C@@H]4O)C5=O)c(O)c3C(=O)C1=C(O)CC[C@@H]2O` [RUGULOTROSIN B], the LD99 in the data set with Bacillus subtilis is 25 µg/mL.

(Values after ChEMBL document CHEMBL1151191, “Rugulotrosins A and B: Two new antibacterial metabolites from an Australian isolate of a Penicillium sp” (J Nat Prod, 2004).)
